Source: patent US7153885B2, “Stolonoxides” (Universidad de Cadiz, priority 2000, dated 2006)
Converted amounts (≈) assume the structure as drawn.

Experiments:
Format in all cases: cell-based
[1] = test system: P-388 (suspension culture of a lymphoid neoplasm from DBA/2 mouse); assay: Antitumour screening, P-388 cell growth (adapted Bergeron method); settings: approximate IC50, three days of incubation, growth vs control wells
Protocol: (§1) Cell Cultures. Cells were maintained in logarithmic phase of growth in Eagle's Minimum Essential Medium, with Earle's Balanced Salts, with 2.0 mM L-glutamine, with non-essential amino acids, without sodium bicarbonate (EMEM/neaa); supplemented with 10% Fetal Calf Serum (FCS), 10^−2 M sodium bicarbonate and 0.1 g/l penicillin-G+streptomycin sulfate.
(§2) A simple screening procedure has been carried out to determine and compare the antitumour activity of these compounds, using an adapted form of the method described by Bergeron et al (1984). The tumour cell line employed were P-388 (suspension culture of a lymphoid neoplasm from DBA/2 mouse), A-549 (monolayer culture of a human lung carcinoma), HT-29 (monolayer culture of a human colon carcinoma) and MEL-28 (monolayer culture of a human melanoma).
(§3) P-388 cell were seeded into 16 mm wells at 1×10^4 cells per well in 1 ml aliquots of MEM 5FCS containing the indicated concentration of drug. A separate set of cultures without drug was seeded as control growth to ensure that cells remained in exponential phase of growth. All determinations were carried out in duplicate. After three days of incubation at 37° C., 10% CO2 in a 98% humid atmosphere, an approximate IC50 was determined by comparing the growth in wells with drug to the growth in wells contol.

[2] = test system: A-549 (monolayer culture of a human lung carcinoma); assay: Antitumour screening, A-549 cell growth (crystal violet); settings: approximate IC50, three days of incubation
Protocol: as §1, §2
as §3, with “A-549, HT-29 and MEL-28” for “P-388 cell”, “2×10^4” for “1×10^4”, “10FCS” for “5FCS”, “the wells were stained with 0.1% Crystal Violet. An” for “an”, “control.” for “contol.”

[3] = test system: HT-29 (monolayer culture of a human colon carcinoma); assay: Antitumour screening, HT-29 cell growth (crystal violet); settings: approximate IC50, three days of incubation
Protocol: as §1, §2
as §3, with “A-549, HT-29 and MEL-28” for “P-388 cell”, “2×10^4” for “1×10^4”, “10FCS” for “5FCS”, “the wells were stained with 0.1% Crystal Violet. An” for “an”, “control.” for “contol.”

[4] = test system: MEL-28 (monolayer culture of a human melanoma); assay: Antitumour screening, MEL-28 cell growth (crystal violet); settings: approximate IC50, three days of incubation
Protocol: as §1, §2
as §3, with “A-549, HT-29 and MEL-28” for “P-388 cell”, “2×10^4” for “1×10^4”, “10FCS” for “5FCS”, “the wells were stained with 0.1% Crystal Violet. An” for “an”, “control.” for “contol.”

IC50 ([1]; Mus musculus, P388, 72 h) [µg/mL] | IC50 ([2]; Homo sapiens, A549, 72 h) [µg/mL] | IC50 ([3]; Homo sapiens, HT-29, 72 h) [µg/mL] | IC50 MEL 28 [4] [µg/mL] | IC50 P 388 [1] [µg/mL] | IC50 A 549 [2] [µg/mL] | IC50 HT 29 [3] [µg/mL] | Compound
0.1 (≈ 0.238 µM) | 0.1 (≈ 0.238 µM) | 0.1 (≈ 0.238 µM) | – | – | – | – | C=CCC/C=C\C=C/CCCCCC[C@H]1CC[C@@H]([C@H]2CC[C@@H](CC(=O)OC)OO2)O1 [Methyl ester (1b), Stolonoxide A methyl ester]
– | – | – | 0.5 | 0.5 | 0.1 | 0.1 | Stolonoxide B methyl ester [Methyl ester (2b)]
